Reference: patent publication US8871799B2, “Iminochromene anti-viral compounds” (priority 2010, dated 2014)

Key:
[1] = test system: HCV; assay: HCV RNA release by Huh7 cells; format: cell-based, Hepatitis C virus; details: control level 100% in the absence of drug
[2] = test system: HCV2a virus; assay: HCV IF antiviral assay (HCV inhibition assay); format: cell-based, Hepatitis C virus; details: for Number HCV infected cells: Huh7 cells, 80 infected cells at 0 μM
[3] = test system: Murine Encephalomyocarditis virus (EMCV); assay: EMCV antiviral assay (MTS cell viability); details: Huh7 cells, 250 pfu EMCV, negative controls ~0.7-0.75

| Compound | Level of HCV RNA in supernatant ([1]; Interferon sample) | HCV infection with positive control treatment ([2]; positive control, representative experiments) | Level of HCV RNA in supernatant ([1]; KIN700 at 10 μM) | Cell viability post-infection ([3]; 5 μM) | Cell viability post-infection ([3]; 10 μM) | Cell viability post-infection ([3]; 20 μM) | Change in number of HCV-infected cells with increasing concentration ([2]; 0, 5 μM, 10 μM and 50 μM) | Number HCV infected cells ([2]; KIN700 added 5 μM) | Number HCV infected cells ([2]; KIN700 added 10 μM) | Number HCV infected cells ([2]; KIN700 added 50 μM) |
| --- | --- | --- | --- | --- | --- | --- | --- | --- | --- | --- |
| interferon [reference compound] | less than 5% | completely blocks HCV infection |  |  |  |  |  |  |  |  |
| COc1ccc(/N=c2\oc3ccc(Cl)cc3cc2C(N)=S)cc1 [KIN700] |  |  | less than 10% | ~0.8 | ~1.5 | ~1.7 | dose-dependent decrease | 25 | 13 | 13 |
